These results are taken from US20080090805A1, “CB-1 MODULATING COMPOUNDS AND THEIR USE” (ACADIA PHARMACEUTICALS INC., priority 2005, published 2008).

Data set [1] has as its target CB1 (mutant) (Homo sapiens, UniProt P21554). In words: R-SAT functional receptor assay, CB1 (mutant, truncated after amino acid 417). Particulars: Table 1, CB1 (mutant). The data set is classed as cell-based.
Data set [2] concerns the target CB1 (wild-type) (Homo sapiens, UniProt P21554). In words: R-SAT functional receptor assay, CB1 (wild-type). The class given is cell-based.
Data set [3] deals with fasted Sprague-Dawley rats. In words: Acute feeding study. The class given is in vivo. Particulars: Table 3 feeding data. On the procedure: Male, Sprague-Dawley rats (90-120 g) served as subjects for these studies. Rats were fasted for a period of 16 hrs (water was always available). After the fasting period, test compounds were administered either intraperitoneally (ip) or orally (po). Immediately following compound administration, the rats were returned to their home cage. Following 30 min after compound administration, the rats were removed from their home cages and placed individually into clean cages with a pre-measured amount of food. Food weights were obtained (to the nearest 0.1 g) at various time points. Food consumption was monitored for a period of up to 2 hrs (i.e., 2.5 hr after test compound administration).

A short description of data set [4]: in vitro. Particulars: mouse, microsomes, pH 7.4.
The nature of data set [5]: in vitro. Particulars: human, microsomes, pH 7.4.
Data set [6] in a line: in vitro. Particulars: rat, microsomes, pH 7.4.
Data set [7] addresses hERG (Homo sapiens, UniProt Q12809). In words: HERG safety study (whole cell recordings, CHO cells). Particulars: CHO cells stably expressing hERG channels, pH 7.4. In general terms: hERG is a cardiac potassium channel; its block is linked to QT prolongation.

hERG, sequence (Q12809 whole entry): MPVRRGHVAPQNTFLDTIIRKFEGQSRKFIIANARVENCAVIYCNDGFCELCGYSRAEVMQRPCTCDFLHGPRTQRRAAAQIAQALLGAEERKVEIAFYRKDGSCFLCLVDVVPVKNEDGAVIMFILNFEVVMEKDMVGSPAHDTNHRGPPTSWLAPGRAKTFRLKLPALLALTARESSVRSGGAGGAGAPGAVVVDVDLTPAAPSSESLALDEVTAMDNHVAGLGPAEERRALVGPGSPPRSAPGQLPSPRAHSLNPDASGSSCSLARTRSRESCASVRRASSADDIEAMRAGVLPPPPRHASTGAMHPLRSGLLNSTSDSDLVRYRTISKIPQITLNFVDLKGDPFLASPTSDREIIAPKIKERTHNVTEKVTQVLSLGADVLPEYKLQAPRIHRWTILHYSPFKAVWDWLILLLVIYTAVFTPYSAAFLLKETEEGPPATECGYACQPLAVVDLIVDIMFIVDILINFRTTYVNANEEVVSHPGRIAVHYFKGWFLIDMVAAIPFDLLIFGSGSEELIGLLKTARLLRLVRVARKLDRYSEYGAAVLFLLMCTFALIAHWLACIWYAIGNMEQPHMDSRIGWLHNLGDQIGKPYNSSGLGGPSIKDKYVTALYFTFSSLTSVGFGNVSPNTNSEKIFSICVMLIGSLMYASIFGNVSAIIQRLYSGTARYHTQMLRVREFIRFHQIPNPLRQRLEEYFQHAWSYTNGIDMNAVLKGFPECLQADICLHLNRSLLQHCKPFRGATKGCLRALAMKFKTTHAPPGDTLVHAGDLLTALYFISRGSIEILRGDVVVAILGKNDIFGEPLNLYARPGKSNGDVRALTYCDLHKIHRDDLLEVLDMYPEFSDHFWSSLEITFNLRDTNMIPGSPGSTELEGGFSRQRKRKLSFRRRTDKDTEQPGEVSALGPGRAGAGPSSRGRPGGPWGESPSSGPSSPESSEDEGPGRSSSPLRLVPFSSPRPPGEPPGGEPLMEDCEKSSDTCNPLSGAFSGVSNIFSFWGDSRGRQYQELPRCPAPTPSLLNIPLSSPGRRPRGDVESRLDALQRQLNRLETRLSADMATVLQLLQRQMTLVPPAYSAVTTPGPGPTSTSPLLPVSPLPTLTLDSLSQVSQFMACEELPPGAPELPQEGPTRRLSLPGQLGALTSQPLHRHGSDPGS
CB1 (wild-type), sequence (P21554 whole entry): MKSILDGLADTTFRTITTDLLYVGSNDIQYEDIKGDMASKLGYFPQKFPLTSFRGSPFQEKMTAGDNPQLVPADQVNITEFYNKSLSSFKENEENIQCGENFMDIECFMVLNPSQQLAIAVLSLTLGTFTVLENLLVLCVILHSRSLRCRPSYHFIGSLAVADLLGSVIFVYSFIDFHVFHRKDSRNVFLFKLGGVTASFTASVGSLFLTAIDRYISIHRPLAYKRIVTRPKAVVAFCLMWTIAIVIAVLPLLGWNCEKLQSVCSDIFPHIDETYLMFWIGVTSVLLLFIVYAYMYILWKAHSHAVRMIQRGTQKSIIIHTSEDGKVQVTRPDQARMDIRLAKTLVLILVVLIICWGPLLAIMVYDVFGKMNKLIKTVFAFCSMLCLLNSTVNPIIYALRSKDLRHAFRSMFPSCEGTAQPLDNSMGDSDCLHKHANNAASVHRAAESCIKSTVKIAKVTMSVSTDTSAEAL
CB1 (mutant), sequence (P21554 1-417, change not shown): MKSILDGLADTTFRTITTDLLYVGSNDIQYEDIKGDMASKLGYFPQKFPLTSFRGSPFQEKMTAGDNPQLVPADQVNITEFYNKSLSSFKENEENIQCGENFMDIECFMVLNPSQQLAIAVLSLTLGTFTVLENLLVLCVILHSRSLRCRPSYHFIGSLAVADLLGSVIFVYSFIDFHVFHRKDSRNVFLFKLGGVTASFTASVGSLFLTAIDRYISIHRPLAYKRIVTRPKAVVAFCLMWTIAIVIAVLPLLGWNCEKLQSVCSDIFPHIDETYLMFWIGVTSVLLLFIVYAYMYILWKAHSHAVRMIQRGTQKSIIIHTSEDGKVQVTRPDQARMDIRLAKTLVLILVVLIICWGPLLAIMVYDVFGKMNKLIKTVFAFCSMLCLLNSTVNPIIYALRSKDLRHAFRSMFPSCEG

What is called % Inhibition is the drop in the measured response relative to a control, in per cent. For `CCOC(=O)N1CCC(NC(=O)c2ccc3c(c2)N=C(Cl)c2ccccc2S3)CC1` [Example 14, 4-[(11-chloro-dibenzo[b,f][1,4]thiazepine-8-carbonyl)-amino]-piperidine-1-carboxylic acid ethyl ester], the IC50 was 316 nM in data set [1] (inhibition of constitutive receptor response, read-out: pIC50 (converted)) and 126 nM in data set [2] (Table 1, inhibition of constitutive receptor response). Also, the “% Inhibition” value in data set [1] (relative to the ligand SR141716 (100%)) is recorded as 94%. In data set [2] (Table 1, relative to the ligand SR141716 (100%), read-out: % Inhibition), the Emax stood at 88%. In data set [3], `CCCCNC(=O)c1ccc2c(c1)N=C(c1ccc(Cl)cc1)c1ccccc1S2` [drawing 536] gave a Feeding ID50 of 2.4 mg/kg. Same read-out and setting: with `O=C(NN1CCCCC1)c1ccc2c(c1)N=C(C1CCCCC1)c1ccccc1S2` [drawing 537] the figure was 12 mg/kg. In turn, `CC(C)CCNC(=O)c1ccc2c(c1)N=C(c1cccc(Cl)c1)c1ccccc1S2` [drawing 538] showed a Feeding ID50 in data set [3] of 5.3 mg/kg. On the same count and under the same terms, with `O=C(NCc1ccc(F)cc1)c1ccc2c(c1)N=C(c1ccc(Cl)cc1)c1ccccc1S2` [drawing 539] the figure was 8 mg/kg; with `CC(C)CNC(=O)c1ccc2c(c1)N=C(c1ccc(Cl)c(Cl)c1)c1ccccc1S2` [drawing 540], 8.4 mg/kg. `O=C(NCc1cccnc1)c1ccc2c(c1)N=C(c1ccc(Cl)c(Cl)c1)c1ccccc1S2` [drawing 541] came in with a Feeding ID50 in data set [3] of 14 mg/kg. On the same count and under the same terms, with `CC(C)CNC(=O)c1ccc2c(c1)N=C(c1ccc(Cl)cc1F)c1ccccc1S2` [drawing 542] the figure was 5.8 mg/kg; with `O=C(NN1CCCCC1)c1ccc2c(c1)N=C(c1ccc(Cl)cc1)c1ccccc1S2` [drawing 543], 2.4 mg/kg. The same measure, in the same setting: the same measure for `CC(C)CNC(=O)c1ccc2c(c1)N=C(c1ccc(Cl)s1)c1ccccc1S2` [drawing 544]: 7.9 mg/kg; for `CCCCNC(=O)c1ccc2c(c1)N=C(c1ccc(F)cn1)c1ccccc1S2` [drawing 545]: 6 mg/kg. What is called microsomal CLint is the rate of metabolic loss divided by the concentration. Low readings indicate greater metabolic stability, high ones faster metabolism. As for `O=C(NN1CCCCC1)c1ccc2c(c1)N=C(c1ccc(Cl)s1)c1ccccc1S2` [drawing 1660], the microsomal CLint at 1 μM in data set [4] came out at 227 µL/min/mg; in data set [5] it was 32 µL/min/mg; in data set [6] it was 148 µL/min/mg. Consider `O=C(NCc1ccc(F)cc1)c1ccc2c(c1)N=C(c1cccc(Cl)c1)c1ccccc1S2` [drawing 1662], for which the microsomal CLint at 1 μM was found to be 27 µL/min/mg in data set [5] and 76 µL/min/mg in data set [6]. In the case of `COc1cccc(C2=Nc3cc(C(=O)NC4CCC(F)(F)CC4)ccc3Sc3ccccc32)n1` [drawing 1673], the intrinsic clearance (microsomal CLint) at 1 μM in data set [5] was determined as 25 µL/min/mg; in data set [6], 158 µL/min/mg. Take `O=C(NCCCc1ccccc1)c1ccc2c(c1)N=C(c1ccc(Cl)cc1)c1ccccc1S2` [drawing 1680]: the intrinsic metabolic clearance (microsomal CLint) at 1 μM in data set [5] was 73 µL/min/mg; in data set [6] it was 131 µL/min/mg. Consider `O=C(NN1CCCCC1)c1ccc2c(c1)N=C(c1ccc(F)cc1)c1ccccc1S2` [drawing 1685], for which the results for the microsomal CLint at 1 μM in data set [5] and in data set [6] were 61 µL/min/mg and 96 µL/min/mg, respectively. On to `O=C(NN1CCCCCC1)c1ccc2c(c1)N=C(c1cccc(F)c1)c1ccccc1S2` [drawing 1693], for which the microsomal CLint at 1 μM in data set [4] came to 160 µL/min/mg; in data set [5], 84 µL/min/mg; in data set [6], 241 µL/min/mg. The matching figures for `CC(C)CCNC(=O)c1ccc2c(c1)N=C(c1cccc(F)c1)c1ccccc1S2` [drawing 1713]: 202 µL/min/mg, 46 µL/min/mg and 163 µL/min/mg. Regarding `O=C(NC1CCC(F)(F)CC1)c1ccc2c(c1)N=C(c1cccc(Cl)c1)c1ccccc1S2` [drawing 1715], the intrinsic clearance (microsomal CLint) at 1 μM in data set [5] amounted to 3 µL/min/mg; in data set [6], 81 µL/min/mg.

As for `C[C@@H]1CCC[C@H](C)N1NC(=O)c1ccc2c(c1)N=C(c1cccc(Cl)c1)c1ccccc1S2` [drawing 1720], the figures for the intrinsic metabolic clearance (microsomal CLint) at 1 μM in data set [4], in data set [5] and in data set [6] were 684 µL/min/mg, 390 µL/min/mg and 254 µL/min/mg, respectively. Turning to `CCN(CCNC(=O)c1ccc2c(c1)N=C(c1cccc(Cl)c1)c1ccccc1S2)c1ccccc1` [drawing 1751], the figures for the microsomal CLint at 1 μM in data set [5] and in data set [6] were 157 µL/min/mg and 368 µL/min/mg, respectively. Take `O=C(NCc1ccco1)c1ccc2c(c1)N=C(c1cccc(F)c1)c1ccccc1S2` [drawing 1754]: the microsomal CLint at 1 μM in data set [4] was 197 µL/min/mg; in data set [5] it was 68 µL/min/mg; in data set [6], 140 µL/min/mg. The matching figures for `CC(C)CNC(=O)c1ccc2c(c1)N=C(c1ccc(Cl)cc1)c1ccccc1S2` [drawing 1759]: 83 µL/min/mg, 12 µL/min/mg and 56 µL/min/mg.

In the case of `O=C(NCCc1ccccc1)c1ccc2c(c1)N=C(c1cccc(Cl)c1)c1ccccc1S2` [drawing 1763], the microsomal CLint at 1 μM in data set [5] amounted to 53 µL/min/mg; in data set [6], 110 µL/min/mg. With `CC(C)CCNC(=O)c1ccc2c(c1)N=C(c1ccc(F)cc1)c1ccccc1S2` [drawing 1771], the microsomal CLint at 1 μM in data set [5] was determined as 52 µL/min/mg; in data set [6] it was 214 µL/min/mg. The matching figures for `O=C(NCc1ccccc1Cl)c1ccc2c(c1)N=C(c1ccc(Cl)cc1)c1ccccc1S2` [drawing 1782]: 17 µL/min/mg and 33 µL/min/mg. The matching figures for `CC(C)CNC(=O)c1ccc2c(c1)N=C(c1ccc(Br)cc1)c1ccccc1S2` [drawing 1791]: 19 µL/min/mg and 115 µL/min/mg. With `O=C(NCc1ccccc1Cl)c1ccc2c(c1)N=C(c1ccccc1F)c1ccccc1S2` [drawing 1794], the microsomal CLint at 1 μM is 59 µL/min/mg in data set [5] and 181 µL/min/mg in data set [6]. For the molecule `CC(CNC(=O)c1ccc2c(c1)N=C(c1ccc(F)cc1)c1ccccc1S2)c1ccccc1` (stereo not drawn) [drawing 1797], the microsomal CLint at 1 μM in data set [5] came to 108 µL/min/mg; in data set [6], 532 µL/min/mg. Consider `O=C(NCc1cccc(Cl)c1)c1ccc2c(c1)N=C(N1CCCCC1)c1ccccc1S2(=O)=O` [drawing 1798], for which the intrinsic metabolic clearance (microsomal CLint) at 1 μM in data set [5] was 77 µL/min/mg; in data set [6], 217 µL/min/mg. Broadly, the inhibition is the percentage by which the read-out fell short of the control. For `O=C(NN1CCCCCC1)c1ccc2c(c1)N=C(c1ccc(Cl)s1)c1ccccc1S2` [drawing 1816], the inhibition at 1 µM in data set [7] turned out to be 30%. `O=C(NCCCC(F)(F)F)c1ccc2c(c1)N=C(c1cccc(F)c1)c1ccccc1S2` [drawing 1817] had an inhibition at 1 µM in data set [7] of 45%. On the same count and under the same terms, with `CC(C)CNC(=O)c1ccc2c(c1)N=C(c1cccc(Cl)c1)c1ccccc1S2` [drawing 1819] the figure was 93%; with `CCCCNC(=O)c1ccc2c(c1)N=C(c1ccc(Br)cn1)c1ccccc1S2` [drawing 1820], 78%; with `CCCCNC(=O)c1ccc2c(c1)N=C(c1ccc(Cl)cc1)c1ccc(F)cc1S2` [drawing 1821], 34%. Molecule `CC(C)CCNC(=O)c1ccc2c(c1)N=C(c1cccc(Cl)c1)c1ccccc1S2` [drawing 1822] had an inhibition at 1 µM in data set [7] of 59%. The molecule `COc1cccc(C2=Nc3cc(C(=O)NCCCC(F)(F)F)ccc3Sc3ccccc32)n1` [drawing 1823] showed an inhibition at 1 µM in data set [7] of 35%.

Molecule `CCCCNC(=O)c1ccc2c(c1)N=C(c1ccc(Cl)s1)c1ccccc1S2` [drawing 1824] displayed an inhibition at 1 µM in data set [7] of 14%. On the same count and under the same terms, the same measure for `O=C(NN1CCCCCC1)c1ccc2c(c1)N=C(c1cccc(Cl)c1)c1ccccc1S2` [drawing 1825]: 97%; for `CCCNC(=O)c1ccc2c(c1)N=C(c1ccc(Cl)cc1)c1ccccc1S2` [drawing 1826]: 55%. Same read-out and setting: the same measure for `O=C(NN1CCCCC1)c1ccc2c(c1)N=C(C1CCCCC1)c1ccccc1S2` [drawing 1828]: 29%; for `O=C(NCc1cccnc1)c1ccc2c(c1)N=C(c1ccc(Cl)c(Cl)c1)c1ccccc1S2` [drawing 1830]: 40%. The molecule `O=C(NN1CCCCC1)c1ccc2c(c1)N=C(c1ccc(Cl)cc1)c1ccccc1S2` [drawing 1831] came in with an inhibition at 1 µM in data set [7] of 92%.

Turning to `O=C(NCCCC(F)(F)F)c1ccc2c(c1)N=C(c1ccccn1)c1ccccc1S2` [drawing 1832], 1 µM produced 28% inhibition in data set [7]. Same read-out and setting: the same measure for `CC(C)CNC(=O)c1ccc2c(c1)N=C(c1ccc(Cl)c(Cl)c1)c1ccccc1S2` [drawing 1833]: 16%; for `O=C(NC1CCCCC1)c1ccc2c(c1)N=C(c1cccc(Cl)c1)c1ccccc1S2` [drawing 1834]: 44%; for `CC(C)CNC(=O)c1ccc2c(c1)N=C(c1ccc(Cl)cc1F)c1ccccc1S2` [drawing 1835]: 41%. In turn, `Cc1ccc(CNC(=O)c2ccc3c(c2)N=C(c2ccc(Cl)s2)c2ccccc2S3)o1` [drawing 1836] showed an inhibition at 1 µM in data set [7] of 13%. Same read-out and setting: the same measure for `O=C(NCCCC(F)(F)F)c1ccc2c(c1)N=C(c1ccsc1)c1ccccc1S2` [drawing 1837]: 28%; for `CCCCNC(=O)c1ccc2c(c1)N=C(c1ccc(Cl)cn1)c1ccccc1S2` [drawing 1839]: 67%. In the case of `CCCCNC(=O)c1ccc2c(c1)N=C(c1ccc(Cl)cc1)c1ccccc1[S+]2[O-]` (stereo not drawn) [drawing 1840], the inhibition at 1 µM in data set [7] came to 52%. On the same count and under the same terms, with `CCCCNC(=O)c1ccc2c(c1)N=C(c1ccc(Cl)cn1)c1cc(F)ccc1S2` [drawing 1841] the figure was 52%. For the molecule `CC(C)CCNC(=O)c1ccc2c(c1)N=C(c1ccccn1)c1ccccc1S2` [drawing 1842], in data set [7], testing at 1 µM gave an inhibition of 39%.
